# Measurements from US10252987B2, “Type of antiviral compound” (Institute of Medicinal Biotechnology, Chinese Academy of …, priority 2015, dated 2019).
# Test system: HCV
# Assay: anti-HCV activity assay in cell culture (HCV RNA by one-step quantitative RT-PCR)
# Type: cell-based
# Settings: Hepatitis C virus, Huh7.5, 96 h, compound at 10 μmol/L; Huh7.5 cells infected with HCV virus particles; cultured 96 hrs; HCV RNA in cells vs virus control group; read-out: percent inhibition (%)
# Procedure: The assay results of anti-HCV activity of the compound synthesized according to the present invention in cell culture are shown in Table 1, wherein the molecular weight is calculated by ChemBioDraw 12.0 software from the molecular structure of each compound.
# 100 μL Huh7.5 cells were seeded in 96-well cell culture plate to 1×10^5/mL density, cultured in an incubator at 37° C. under the condition of 5% CO2 and saturated humidity for 6 hrs. Huh7.5 cells were then infected by viral solution containing HCV virus particles, and solutions of compound of the present invention at a concentration of 10 μmol/L liquid were added respectively, cultured for further 96 hrs, and then total RNA was extracted from the cells. Amount of HCV RNA in cells was determined by one-step quantitative RT-PCR, and compared to RNA levels of the virus control group to calculate the inhibition rate of compounds on HCV.
row,SMILES,inhibition at 10 µM
1,"COc1ccc(N2CCN(Cc3cc(NCN4CCCCC4)ccc3C#N)CC2)cc1 [VI-2, 4-(((piperidin-1-yl)methyl)amino)-2-(4-(4-methoxyphenyl)piperazin-1-yl)methylbenzonitrile]",62%
2,"COc1ccc(N2CCN(Cc3cc(N4CCN(C)CC4)ccc3C#N)CC2)cc1 [VI-3, 4-((4-methyl)piperazin-1-yl)-2-(4-(4-methoxyphenyl)piperazin-1-yl)methylbenzonitrile]",91%
3,"Cc1ccc(N2CCN(Cc3cc(N4CCN(C)CC4)ccc3C#N)CC2)cc1 [VI-4, 4-((4-methyl)piperazin-1-yl)-2-(4-(4-methylphenyl)piperazin-1-yl)methylbenzonitrile]",98%
4,"COc1ccc(N2CCN(Cc3cc(N4CCNCC4)ccc3C#N)CC2)cc1 [VI-5, 4-(piperazin-1-yl)-2-(4-(4-methoxyphenyl)piperazin-1-yl)methylbenzonitrile]",79%
5,"Cc1ccc(N2CCN(Cc3cc(N4CCNCC4)ccc3C#N)CC2)cc1 [VI-6, 4-(piperazin-1-yl)-2-(4-(4-methylphenyl)piperazin-1-yl)methylbenzonitrile]",88%
6,"Cc1ccc(N2CCN(Cc3cc(N4CCCC(N)C4)ccc3C#N)CC2)cc1 (stereo not drawn) [VI-7, 4-(3-aminopiperidin-1-yl)-2-((4-(4-methylphenyl)piperazin-1-yl)methyl)benzonitrile]",71%
7,"CN1CCN(c2ccc(C#N)c(CN3CCN(c4ccc(Cl)cc4)CC3)c2)CC1 [VI-9, 4-(4-methylpiperazin-1-yl)-2-(4-(4-chlorophenyl)piperazin-1-yl)methylbenzonitrile]",92%
8,"N#Cc1ccc(N2CCNCC2)cc1CN1CCN(c2ccc(Cl)cc2)CC1 [VI-10, 4-(piperazin-1-yl)-2-(4-(4-chlorophenyl)piperazin-1-yl)methylbenzonitrile]",73%
9,"Cc1ccc(N2CCN(Cc3cc(N4CCN(C)CC4)ccc3C#N)CC2)cc1C [VI-11, 4-(4-methylpiperazin-1-yl)-2-(4-(3,4-dimethylphenyl)piperazin-1-yl)methylbenzonitrile]",80%
10,"CN1CCN(c2ccc(C#N)c(CN3CCN(c4ccc(C5CCCCC5)cc4)CC3)c2)CC1 [VI-12, 4-(4-methylpiperazin-1-yl)-2-(4-(4-cyclohexylphenyl)piperazin-1-yl)methylbenzonitrile]",86%
11,"CN1CCN(c2ccc(C#N)c(CN3CCN(c4ccc(C(C)(C)C)cc4)CC3)c2)CC1 [VI-13, 4-(4-methylpiperazin-1-yl)-2-(4-(4-tert-butylphenyl)piperazin-1-yl)methylbenzonitrile]",90%
12,"CCc1ccc(N2CCN(Cc3cc(N4CCN(C)CC4)ccc3C#N)CC2)cc1 [VI-14, 4-(4-methylpiperazin-1-yl)-2-(4-(4-ethylphenyl)piperazin-1-yl)methylbenzonitrile]",88%
13,"Cc1cc(N2CCN(Cc3cc(N4CCNCC4)ccc3C#N)CC2)ccc1Cl [VI-15, 4-(piperazin-1-yl)-2-(4-(3-methyl4-chlorophenyl)piperazin-1-yl)methylbenzonitrile]",95%
14,"CC(C)c1ccc(N2CCN(Cc3cc(N4CCN(C)CC4)ccc3C#N)CC2)cc1 [VI-16, 4-(4-methylpiperazin-1-yl)-2-(4-(4-isopropylphenyl)piperazin-1-yl)methylbenzonitrile]",68%
15,"CSc1ccc(N2CCN(Cc3cc(N4CCN(C)CC4)ccc3C#N)CC2)cc1 [VI-17, 4-(4-methylpiperazin-1-yl)-2-(4-(4-(methylthio)phenyl)piperazin-1-yl)methylbenzonitrile]",70%
16,"CN1CCN(c2ccc(C#N)c(CN3CCN(c4ccc(O)cc4)CC3)c2)CC1 [VI-19, 4-(4-methylpiperazin-1-yl)-2-(4-(4-hydroxylphenyl)piperazin-1-yl)methylbenzonitrile]",67%
17,"CNc1ccc(N2CCN(Cc3cc(N4CCN(C)CC4)ccc3C#N)CC2)cc1 [VI-20, 4-(4-methylpiperazin-1-yl)-2-(4-(4-methylaminophenyl)piperazin-1-yl)methylbenzonitrile]",78%
18,"CN1CCN(c2ccc(C#N)c(CN3CCN(c4ccc(N(C)C)cc4)CC3)c2)CC1 [VI-21, 4-(4-methylpiperazin-1-yl)-2-(4-(4-dimethylaminophenyl)piperazin-1-yl)methylbenzonitrile]",65%
19,"CN(C)CCN(C)c1ccc(C#N)c(CN2CCN(c3ccc(N4CCCC4)cc3)CC2)c1 [VI-22, 4-((2-(dimethylamino)ethyl)(methyl)amino)-2-(4-(4-(pyrrolidin-1-yl)phenyl)piperazin-1-yl)methylbenzonitrile]",83%
20,"Cc1cc(C2CCN(Cc3cc(N4CCN(C)CC4)ccc3C#N)CC2)ccc1C#N [VI-23, 4-(4-methylpiperazin-1-yl)-2-(4-(3-methyl-4-cyanophenyl)piperidin-1-yl)methylbenzonitrile]",77%
21,"CN1CCN(c2ccc(C#N)c(CN3CCN(c4ccc(C5CCCC5)cc4)CC3)c2)CC1 [VI-24, 4-(4-methylpiperazin-1-yl)-2-(4-(4-cyclopentylphenyl)piperazin-1-yl)methylbenzonitrile]",59%
22,"CN(C)CNc1ccc(C#N)c(CN2CCN(c3ccc(C(C)(C)C)cc3)CC2)c1 [VI-33, 2-(4-(4-tert-butylphenyl)piperazin-1-yl)methyl-4-((N,N-dimethylamino)methyl)amino-benzonitrile]",90%
23,"CN1CCN(c2ccc(C#N)c(CN3CCN(c4ccc(Br)cc4)CC3)c2)CC1 [VI-34, 2-(4-(4-bromophenyl)piperazin-1-yl)methyl-4-(4-methylpiperazin-1-yl)benzonitrile]",91%
24,"Cc1ccc(N2CCN(Cc3cc(N(C)CN4CCCCC4)ccc3C#N)CC2)cc1 [VI-36, 4-((methyl)((piperidin-1-yl)-methyl)amino)-2-(4-p-methylphenylpiperazin-1-yl)methylbenzonitrile]",91%
25,"Cc1ccc(N2CCN(Cc3cc(N(C)CN4CCCC4)ccc3C#N)CC2)cc1 [VI-37, 4-((methyl)((pyrrolidin-1-yl)-methyl)amino)-2-(4-p-methylphenylpiperazin-1-yl)methylbenzonitrile]",87%
26,"CN1CCN(c2ccc(C#N)c(CN3CCC(c4ccc(C(C)(C)C)cc4)CC3)c2)CC1 [VI-38, 4-(4-methylpiperazin-1-yl)-2-(4-(4-tert-butylphenyl)piperidin-1-yl)methylbenzonitrile]",80%

# Same assay, conditions: compound at 10 μmol/L; Huh7.5 cells infected with HCV virus particles; cultured 96 hrs; HCV RNA in cells vs virus control group
row,SMILES,percent inhibition (%)
1,COc1ccc(N2CCN(Cc3cc(NCCN(C)C)ccc3C#N)CC2)cc1 [VI-1],99%
2,"N#Cc1ccc(N2CCNCC2)cc1CN1CCN(c2ccccc2)CC1 [VI-8, 4-(piperazin-1-yl)-2-(4-(4-phenyl)piperazin-1-yl)methylbenzonitrile]",82%
3,"CN1CCN(c2ccc(C#N)c(CN3CCN(c4ccc(Br)cc4)CC3)c2)CC1 [VI-18, 4-(4-methylpiperazin-1-yl)-2-(4-(4-bromophenyl)piperazin-1-yl)methylbenzonitrile]",86%
4,COc1ccc(N2CCN(Cc3cc(N4C(C)CNCC4C)ccc3C#N)CC2)cc1 (stereo not drawn) [VI-25],67%
5,"Cc1ccc(N2CCN(Cc3cc(NCCCN(C)C)ccc3C#N)CC2)cc1 [VI-26, 4-(N′,N′-dimethyl-1,3-propanediamin-1-yl)-2-(4-p-methylphenylpiperazin-1-yl)methylbenzonitrile]",58%
6,"CN(C)CCCNc1ccc(C#N)c(CN2CCN(c3ccccc3)CC2)c1 [VI-27, 4-(N′,N′-dimethyl-1,3-propanediamin-1-yl)-2-(4-phenylpiperazin-1-yl)methylbenzonitrile]",60%
7,"CN(C)CCNc1ccc(C#N)c(CN2CCN(c3ccc(C(F)(F)F)cc3)CC2)c1 [VI-28, 4-(N′,N′-dimethyl-1,2-ethylenediamin-1-yl)-2-(4-p-trifluoromethylphenyl-piperazin-1-yl)methylbenzonitrile]",79%
8,"CN(C)CCCNc1ccc(C#N)c(CN2CCN(c3ccc(Cl)cc3)CC2)c1 [VI-29, 4-(N′,N′-dimethyl-1,3-propanediamin-1-yl)-2-(4-p-chlorophenylpiperazin-1-yl)methylbenzonitrile]",80%
9,"COc1ccc(N2CCN(Cc3cc(NCCN(C)C)ccc3C#N)CC2)cc1 [VI-30, 4-(N′,N′-dimethyl-1,2-ethylenediamin-1-yl)-2-(4-p-methoxyphenylpiperazin-1-yl)methylbenzonitrile]",66%
10,"COc1ccc(N2CCN(Cc3cc(N(C)CCN(C)C)ccc3C#N)CC2)cc1 [VI-31, 4-(N,N′,N′-trimethyl-1,2-ethylenediamin-1-yl)-2-(4-p-methoxyphenylpiperazin-1-yl)methylbenzonitrile]",91%
11,"CN(C)CCCN(C)c1ccc(C#N)c(CN2CCN(c3ccc(C4CCCCC4)cc3)CC2)c1 [VI-32, 4-(N,N′,N′-trimethyl1,3-propanediamin-1-yl)-2-(4-p-cyclohexylphenylpiperazin-1-yl)methylbenzonitrile]",80%
12,"CN(C)CCN(C)c1ccc(C#N)c(CN2CCN(c3ccc(Cl)cc3)CC2)c1 [VI-35, 4-(N,N′,N′-trimethyl-1,2-ethylenediamin-1-yl)-2-(4-p-chlorophenylpiperazin-1-yl)methylbenzonitrile]",99%
13,"CN(C)CCN(C)c1ccc(C#N)c(CN2CCC(c3ccc(Cl)cc3)CC2)c1 [VI-39, 4-(N,N′,N′-trimethyl-1,2-ethylenediamin-1-yl)-2-(4-p-chlorophenylpiperidin-1-yl)methylbenzonitrile]",88%
